From US10314308B2, “Microbiocidal benzoxaboroles” (SYNGENTA PARTICIPATIONS AG, priority 2015, dated 2019)

Experiments:
Fusarium Culmorum = assay: microbe, parasite or virus in culture; assay type: cell-based; settings: read-out: disease control (inhibition of growth, photometrically)
[1] = test system: Mycosphaerella Arachidis(Cercospora Arachidicola); assay: Mycosphaerella arachidis (Cercospora arachidicola) / liquid culture (early leaf spot); assay type: cell-based; settings: PDB potato dextrose broth, 24° C., 4-5 days after application, read-out: disease control (inhibition of growth, photometrically)
Outline: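 Growth inhibition was read photometrically 4-5 days post-application, following incubation at 24 °C. Test compounds in DMSO were combined with fungal spores from cryogenic storage suspended in potato dextrose broth.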

[2] = test system: Botryotinia Fuckeliana(Botrytis Cinerea); assay: Botryotinia fuckeliana (Botrytis cinerea) / liquid culture (gray mould); assay type: cell-based; settings: Vogels broth, 24° C., 3-4 days after application, read-out: disease control (inhibition of growth, photometrically)
Method: 9 Botryotinia Fuckeliana(Botrytis Cinerea)/Liquid Culture (Gray Mould) Conidia of the fungus from cryogenic storage were directly mixed into nutrient broth (Vogels broth). After placing a DMSO solution of test compound into a 96-well microtiter plate, the nutrient broth containing the fungal spores was added. The test plates were incubated at 24° C. and the inhibition of growth was determined photometrically 3-4 days after application.

Sclerotinia Sclerotiorum = assay: Sclerotinia sclerotiorum / liquid culture (cottony rot); assay type: cell-based; settings: PDB potato dextrose broth, 24° C., 3-4 days after application, read-out: disease control (inhibition of growth, visually)
Outline: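 Growth inhibition was read by eye 3-4 days post-application at 24° C. Compounds (DMSO solution) were combined with potato dextrose broth seeded with mycelia fragments from a newly grown liquid culture.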

[3] = test system: Monographella Nivalis(Microdochium Nivale); assay: Monographella nivalis (Microdochium nivale) / liquid culture (foot rot cereals); assay type: cell-based; settings: PDB potato dextrose broth, 24° C., 4-5 days after application, read-out: disease control (inhibition of growth, photometrically)
Outline: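 Growth inhibition measured photometrically after 4-5 days at 24° C. Test compound in DMSO was combined with nutrient broth (PDB) carrying conidia taken directly from cryogenic storage.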

Pythium Ultimum = assay: Pythium ultimum / liquid culture (seedling damping off); assay type: cell-based; settings: Globisporangium ultimum, potato dextrose broth, 24° C., 2-3 days after application, read-out: disease control (inhibition of growth, photometrically)
Gaeumannomyces Graminis = assay: Gaeumannomyces graminis / liquid culture (take-all of cereals); assay type: cell-based; settings: PDB potato dextrose broth, 24° C., 4-5 days after application, read-out: disease control (inhibition of growth, photometrically)
Outline: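 Liquid-culture growth assay: compound delivered as DMSO solution, then fungal inoculum in potato dextrose broth added. Photometric read of growth inhibition after 4-5 days at 24° C.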

Phytophthora Infestans = assay: whole plant or invertebrate; assay type: in vivo; settings: in Solanum lycopersicum, foliar, read-out: disease control
[4] = test system: Glomerella Lagenarium(Colletotrichum Ladenarium); assay: Glomerella lagenarium (Colletotrichum lagenarium) / liquid culture (anthracnose); assay type: cell-based; settings: PDB potato dextrose broth, 24° C., 3-4 days after application, read-out: disease control (inhibition of growth, photometrically)
Outline: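 Compound dissolved in DMSO was combined with potato dextrose broth carrying conidia taken directly from cryogenic storage. Photometric growth inhibition readings were taken after 3–4 days of incubation at 24 °C.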

[5] = test system: Mycosphaerella Graminicola(Septoria Tritici); assay: Mycosphaerella graminicola (Septoria tritici) / liquid culture (Septoria blotch); assay type: cell-based; settings: Zymoseptoria tritici, PDB potato dextrose broth, 24° C., 4-5 days after application, read-out: disease control (inhibition of growth, photometrically)
Outline: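 Growth inhibition measured by photometry 4-5 days post-application, at 24 °C, in liquid culture of spores taken straight from cryogenic storage into potato dextrose broth, with test compound supplied in DMSO.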

[6] = test system: Thanatephorus Cucumeris(Rhizoctonia Solani); assay: Thanatephorus cucumeris (Rhizoctonia solani) / liquid culture (foot rot, damping-off); assay type: cell-based; settings: PDB potato dextrose broth, 24° C., 3-4 days after application, read-out: disease control (inhibition of growth, photometrically)
Method: 16 Thanatephorus Cucumeris(Rhizoctonia Solani)/Liquid Culture (Foot Rot, Damping-Off) Mycelia fragments of a newly grown liquid culture of the fungus were directly mixed into nutrient broth (PDB potato dextrose broth). After placing a DMSO solution of the test compounds into a 96-well microtiter plate at an application rate of 200 ppm, the nutrient broth containing the fungal material was added. The test plates were incubated at 24° C. and the inhibition of growth was determined photometrically 3-4 days after application.

Plasmopara Viticola = assay: whole plant or invertebrate; assay type: in vivo; settings: foliar, read-out: disease control
[7] = test system: Puccinia Recondita f. sp. Tritici; assay: Puccinia recondita f. sp. tritici / wheat / leaf disc preventative (brown rust); assay type: in vivo; settings: foliar, wheat leaf segments cv Kanzler, inoculated 1 day after application, assessed 7-9 days after application, read-out: disease control
Method: 3 Puccinia Recondita f. sp. Tritici/Wheat/Leaf Disc Preventative (Brown Rust) Wheat leaf segments cultivated variety (cv) Kanzler were placed on agar in 24-well plates and sprayed with formulated test compound diluted in water. The leaf disks were inoculated with a spore suspension of the fungus 1 day after application. The inoculated leaf segments were incubated at 19° C. and 75% relative humidity under a light regime of 12/12 h (light/dark) in a climate cabinet and the activity of a compound was assessed as percent disease control compared to untreated when an appropriate level of disease damage appears in untreated check leaf segments (7-9 days after application).

[8] = test system: Phaeosphaeria Nodorum (Septoria Nodorum); assay: Phaeosphaeria nodorum (Septoria nodorum) / wheat / leaf disc preventative (glume blotch); assay type: in vivo; settings: Parastagonospora nodorum, foliar, wheat leaf segments cv Kanzler, inoculated 2 days after application, assessed 5-7 days after application, read-out: disease control
Method: 5 Phaeosphaeria Nodorum (Septoria Nodorum)/Wheat/Leaf Disc Preventative (Glume Blotch) Wheat leaf segments cv Kanzler were placed on agar in a 24-well plate and sprayed with formulated test compound diluted in water. The leaf disks were inoculated with a spore suspension of the fungus 2 days after application. The inoculated test leaf disks were incubated at 20° C. and 75% relative humidity under a light regime of 12/12 h (light/dark) in a climate cabinet and the activity of a compound was assessed as percent disease control compared to untreated when an appropriate level of disease damage appears in untreated check leaf disks (5-7 days after application).

Structure (SMILES) | inhibition at 20 ppm (Fusarium Culmorum) | inhibition at 20 ppm [1] | inhibition at 20 ppm [2] | inhibition at 20 ppm (Sclerotinia Sclerotiorum) | inhibition at 20 ppm [3] | inhibition at 20 ppm (Pythium Ultimum) | inhibition at 20 ppm (Gaeumannomyces Graminis) | pest or weed control at 200 ppm (Phytophthora Infestans) | inhibition at 20 ppm [4] | inhibition at 20 ppm [5] | melting point | inhibition at 20 ppm [6] | pest or weed control at 200 ppm (Plasmopara Viticola) | pest or weed control at 200 ppm [7] | pest or weed control at 200 ppm [8]
CC1N=C(c2cc3c(cc2Cl)COB3O)S/C1=N/O (stereo not shown) [Compound 17] | ≥ 80% | ≥ 80% | ≥ 80% | ≥ 80% | ≥ 80% | ≥ 80% | ≥ 80% | ≥ 80% | ≥ 80% | ≥ 80% | – | – | – | – | –
COc1c(-c2nnco2)ccc2c1B(O)OC2 [Compound 93] | – | ≥ 80% | – | – | – | ≥ 80% | ≥ 80% | ≥ 80% | ≥ 80% | – | 176 to 178 °C | – | – | – | –
CC(=O)c1ccc(-c2cc3c(cc2Cl)COB3O)o1 [Compound 39] | ≥ 80% | ≥ 80% | – | – | ≥ 80% | ≥ 80% | ≥ 80% | ≥ 80% | ≥ 80% | – | – | ≥ 80% | ≥ 80% | – | –
OB1OCc2cc(Cl)c(-c3cncc(C(F)(F)F)c3)cc21 [Compound 91] | ≥ 80% | ≥ 80% | ≥ 80% | ≥ 80% | ≥ 80% | ≥ 80% | ≥ 80% | – | ≥ 80% | ≥ 80% | – | ≥ 80% | ≥ 80% | ≥ 80% | ≥ 80%
OB1OCc2cc(Cl)c(-c3ncno3)cc21 [Compound 14, 5-(5-chloro-1-hydroxy-3H-2,1-benzoxaborol-6-yl)-1,2,4-oxadiazole] | ≥ 80% | ≥ 80% | ≥ 80% | ≥ 80% | ≥ 80% | ≥ 80% | ≥ 80% | – | ≥ 80% | ≥ 80% | 175 to 177 °C | ≥ 80% | ≥ 80% | ≥ 80% | –
OB1OCc2cc(F)c(-c3cccs3)cc21 [Compound 6] | ≥ 80% | ≥ 80% | ≥ 80% | ≥ 80% | ≥ 80% | ≥ 80% | ≥ 80% | – | ≥ 80% | ≥ 80% | 134 to 140 °C | ≥ 80% | ≥ 80% | ≥ 80% | –
OB1OCc2cc(Cl)c(-c3ccsc3Cl)cc21 [Compound 88] | ≥ 80% | ≥ 80% | – | ≥ 80% | ≥ 80% | ≥ 80% | ≥ 80% | – | ≥ 80% | ≥ 80% | – | ≥ 80% | ≥ 80% | ≥ 80% | ≥ 80%
OB1OCc2cc(Cl)c(-c3cccs3)cc21 [Compound 3] | ≥ 80% | ≥ 80% | ≥ 80% | ≥ 80% | ≥ 80% | ≥ 80% | ≥ 80% | – | ≥ 80% | ≥ 80% | 125 to 135 °C | ≥ 80% | ≥ 80% | ≥ 80% | ≥ 80%
Cc1nc(C)c(-c2cc3c(cc2Cl)COB3O)s1 [Compound 1] | ≥ 80% | – | – | – | ≥ 80% | ≥ 80% | ≥ 80% | – | – | ≥ 80% | 155 to 160 °C | – | ≥ 80% | ≥ 80% | –
Cc1ncsc1-c1cc2c(cc1Cl)COB2O [Compound 16] | ≥ 80% | ≥ 80% | ≥ 80% | ≥ 80% | ≥ 80% | ≥ 80% | ≥ 80% | ≥ 80% | ≥ 80% | ≥ 80% | – | – | ≥ 80% | – | –
OB1OCc2ccc(-c3ncon3)cc21 [Compound 92] | ≥ 80% | ≥ 80% | ≥ 80% | ≥ 80% | ≥ 80% | ≥ 80% | ≥ 80% | – | ≥ 80% | ≥ 80% | 209 to 211 °C | ≥ 80% | – | ≥ 80% | –
OB1OCc2cc(F)c(-c3ccsc3Cl)cc21 [Compound 79] | – | ≥ 80% | – | ≥ 80% | ≥ 80% | ≥ 80% | ≥ 80% | – | ≥ 80% | ≥ 80% | – | ≥ 80% | ≥ 80% | ≥ 80% | ≥ 80%
Cc1csc(-c2cc3c(cc2Cl)COB3O)n1 [Compound 15] | ≥ 80% | ≥ 80% | – | ≥ 80% | ≥ 80% | ≥ 80% | ≥ 80% | ≥ 80% | ≥ 80% | ≥ 80% | – | ≥ 80% | ≥ 80% | – | –
Cn1cccc1-c1cc2c(cc1Cl)COB2O [Compound 4] | ≥ 80% | ≥ 80% | – | – | ≥ 80% | ≥ 80% | ≥ 80% | – | ≥ 80% | ≥ 80% | 195 to 202 °C | – | ≥ 80% | ≥ 80% | ≥ 80%
OB1OCc2cc(Cl)c(-c3ncon3)cc21 [Compound 96] | ≥ 80% | ≥ 80% | ≥ 80% | ≥ 80% | ≥ 80% | ≥ 80% | ≥ 80% | – | ≥ 80% | ≥ 80% | 180 to 203 °C | ≥ 80% | – | ≥ 80% | –
